What was measured:
Assay in all cases: relative viability (nuclei count vs DMSO), 5 days (fraction); higher = more cells survive
EMC-BAC-2 = test system: EMC-BAC-2
Outline: (§1)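 Lung cancer cell lines were seeded in 1536-well plates and dosed by pin tool the next day, with either a single drug or a fixed anchor-drug dose combined with five library-drug doses (not always all listed) spaced in √10 steps. Five days later, one step fixed the cells and stained their nuclei (final 0.05% Triton X-100, 1% formaldehyde, 1 ug/ml Hoechst), and nuclei were counted on 4× images. Relative viability is the nuclei count in treated wells divided by the count in vehicle wells, and each value is the median of duplicate plates.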

HCC-366 = test system: HCC-366
Outline: as §1

NCI-H2170 = test system: NCI-H2170
Outline: as §1

PC-3 [JPC-3] = test system: PC-3 [JPC-3]
Outline: as §1

SK-MES-1 = test system: SK-MES-1
Outline: as §1

NCI-H23 = test system: NCI-H23
Outline: as §1

COR-L 105 = test system: COR-L 105
Outline: as §1

NCI-H596 = test system: NCI-H596
Outline: as §1

H3255 = test system: H3255
Outline: as §1

NCI-H1975 = test system: NCI-H1975
Outline: as §1

A-427 = test system: A-427
Outline: as §1

EKVX = test system: EKVX
Outline: as §1

NCI-H520 = test system: NCI-H520
Outline: as §1

NCI-H1563 = test system: NCI-H1563
Outline: as §1

LOU-NH91 = test system: LOU-NH91
Outline: as §1

NCI-H1666 = test system: NCI-H1666
Outline: as §1

NCI-H441 = test system: NCI-H441
Outline: as §1

NCI-H1755 = test system: NCI-H1755
Outline: as §1

NCI-H1734 = test system: NCI-H1734
Outline: as §1

ChaGo-K-1 = test system: ChaGo-K-1
Outline: as §1

LK-2 = test system: LK-2
Outline: as §1

SMILES: Nc1ccn([C@@H]2O[C@H](CO)[C@@H](O)[C@@H]2O)c(=O)n1 [Cytarabine] + C[C@@H](Oc1cc(-c2cnn(C3CCNCC3)c2)cnc1N)c1c(Cl)ccc(F)c1Cl [Crizotinib] (partner 1 µM)
- relative viability (EMC-BAC-2; first compound 0.005 µM): 0.592
- relative viability (EMC-BAC-2; first compound 0.01581 µM): 0.574
- relative viability (EMC-BAC-2; first compound 0.05 µM): 0.472
- relative viability (EMC-BAC-2; first compound 0.1581 µM): 0.242
- relative viability (EMC-BAC-2; first compound 0.5 µM): 0.185
- relative viability (HCC-366; first compound 0.005 µM): 0.405
- relative viability (HCC-366; first compound 0.01581 µM): 0.43
- relative viability (HCC-366; first compound 0.05 µM): 0.216
- relative viability (HCC-366; first compound 0.1581 µM): 0.026
- relative viability (HCC-366; first compound 0.5 µM): 0.0284
- relative viability (NCI-H2170; first compound 0.01581 µM): 0.925
- relative viability (NCI-H2170; first compound 0.05 µM): 0.912
- relative viability (NCI-H2170; first compound 0.1581 µM): 0.605
- relative viability (NCI-H2170; first compound 0.5 µM): 0.483
- relative viability (PC-3 [JPC-3]; first compound 0.005 µM): 0.781
- relative viability (PC-3 [JPC-3]; first compound 0.01581 µM): 0.837
- relative viability (PC-3 [JPC-3]; first compound 0.05 µM): 0.78
- relative viability (PC-3 [JPC-3]; first compound 0.1581 µM): 0.712
- relative viability (PC-3 [JPC-3]; first compound 0.5 µM): 0.617
- relative viability (SK-MES-1; first compound 0.005 µM): 0.706
- relative viability (SK-MES-1; first compound 0.01581 µM): 0.741
- relative viability (SK-MES-1; first compound 0.05 µM): 0.367
- relative viability (SK-MES-1; first compound 0.1581 µM): 0.274
- relative viability (SK-MES-1; first compound 0.5 µM): 0.219
- relative viability (NCI-H23; first compound 0.005 µM): 0.458
- relative viability (NCI-H23; first compound 0.01581 µM): 0.369
- relative viability (NCI-H23; first compound 0.05 µM): 0.311
- relative viability (NCI-H23; first compound 0.1581 µM): 0.226
- relative viability (NCI-H23; first compound 0.5 µM): 0.209
- relative viability (COR-L 105; first compound 0.005 µM): 0.657
- relative viability (COR-L 105; first compound 0.01581 µM): 0.725
- relative viability (COR-L 105; first compound 0.05 µM): 0.511
- relative viability (COR-L 105; first compound 0.1581 µM): 0.393
- relative viability (COR-L 105; first compound 0.5 µM): 0.256
- relative viability (NCI-H596; first compound 0.005 µM): 0.889
- relative viability (NCI-H596; first compound 0.01581 µM): 0.961
- relative viability (NCI-H596; first compound 0.05 µM): 0.786
- relative viability (NCI-H596; first compound 0.1581 µM): 0.614
- relative viability (NCI-H596; first compound 0.5 µM): 0.743
- relative viability (H3255; first compound 0.005 µM): 0.76
- relative viability (H3255; first compound 0.01581 µM): 0.828
- relative viability (H3255; first compound 0.05 µM): 0.776
- relative viability (H3255; first compound 0.1581 µM): 0.724
- relative viability (H3255; first compound 0.5 µM): 0.667
- relative viability (NCI-H1975; first compound 0.005 µM): 0.801
- relative viability (NCI-H1975; first compound 0.01581 µM): 1.01
- relative viability (NCI-H1975; first compound 0.05 µM): 0.994
- relative viability (NCI-H1975; first compound 0.1581 µM): 0.667
- relative viability (NCI-H1975; first compound 0.5 µM): 0.373
- relative viability (A-427; first compound 0.005 µM): 0.605
- relative viability (A-427; first compound 0.01581 µM): 0.414
- relative viability (A-427; first compound 0.05 µM): 0.149
- relative viability (A-427; first compound 0.1581 µM): 0.172
- relative viability (A-427; first compound 0.5 µM): 0.173
- relative viability (EKVX; first compound 0.005 µM): 0.802
- relative viability (EKVX; first compound 0.01581 µM): 1.07
- relative viability (EKVX; first compound 0.05 µM): 0.827
- relative viability (EKVX; first compound 0.1581 µM): 0.368
- relative viability (EKVX; first compound 0.5 µM): 0.287
- relative viability (NCI-H520; first compound 0.005 µM): 0.56
- relative viability (NCI-H520; first compound 0.01581 µM): 0.758
- relative viability (NCI-H520; first compound 0.05 µM): 0.831
- relative viability (NCI-H520; first compound 0.1581 µM): 0.56
- relative viability (NCI-H520; first compound 0.5 µM): 0.469
- relative viability (NCI-H1563; first compound 0.005 µM): 0.806
- relative viability (NCI-H1563; first compound 0.01581 µM): 0.916
- relative viability (NCI-H1563; first compound 0.05 µM): 0.852
- relative viability (NCI-H1563; first compound 0.1581 µM): 0.809
- relative viability (NCI-H1563; first compound 0.5 µM): 0.606
- relative viability (LOU-NH91; first compound 0.005 µM): 0.753
- relative viability (LOU-NH91; first compound 0.01581 µM): 0.714
- relative viability (LOU-NH91; first compound 0.05 µM): 0.637
- relative viability (LOU-NH91; first compound 0.1581 µM): 0.511
- relative viability (LOU-NH91; first compound 0.5 µM): 0.56
- relative viability (NCI-H1666; first compound 0.005 µM): 0.794
- relative viability (NCI-H1666; first compound 0.01581 µM): 0.945
- relative viability (NCI-H1666; first compound 0.05 µM): 0.612
- relative viability (NCI-H1666; first compound 0.1581 µM): 0.358
- relative viability (NCI-H1666; first compound 0.5 µM): 0.388
- relative viability (NCI-H441; first compound 0.005 µM): 0.776
- relative viability (NCI-H441; first compound 0.01581 µM): 0.824
- relative viability (NCI-H441; first compound 0.05 µM): 0.598
- relative viability (NCI-H441; first compound 0.1581 µM): 0.199
- relative viability (NCI-H441; first compound 0.5 µM): 0.165
- relative viability (NCI-H1755; first compound 0.005 µM): 0.788
- relative viability (NCI-H1755; first compound 0.01581 µM): 0.761
- relative viability (NCI-H1755; first compound 0.05 µM): 0.565
- relative viability (NCI-H1755; first compound 0.1581 µM): 0.265
- relative viability (NCI-H1755; first compound 0.5 µM): 0.286
- relative viability (NCI-H1734; first compound 0.005 µM): 0.473
- relative viability (NCI-H1734; first compound 0.01581 µM): 0.326
- relative viability (NCI-H1734; first compound 0.05 µM): 0.23
- relative viability (NCI-H1734; first compound 0.1581 µM): 0.143
- relative viability (NCI-H1734; first compound 0.5 µM): 0.157
- relative viability (ChaGo-K-1; first compound 0.005 µM): 0.732
- relative viability (ChaGo-K-1; first compound 0.01581 µM): 0.717
- relative viability (ChaGo-K-1; first compound 0.05 µM): 0.521
- relative viability (ChaGo-K-1; first compound 0.1581 µM): 0.383
- relative viability (ChaGo-K-1; first compound 0.5 µM): 0.358
- relative viability (LK-2; first compound 0.005 µM): 0.262
- relative viability (LK-2; first compound 0.01581 µM): 0.305
- relative viability (LK-2; first compound 0.05 µM): 0.208
- relative viability (LK-2; first compound 0.1581 µM): 0.196
- relative viability (LK-2; first compound 0.5 µM): 0.205
